Source: patent publication US20250313533A1, “QUINOLINE CARBOXYLIC ACID ESTER COMPOUND AND PREPARATION METHOD AND USE THEREOF” (priority 2019, published 2025)

Key:
[1] = test system: pathogenic bacteria causing bacterial angular leaf spot in cucumbers; test: In vitro bactericidal activity, bacterial angular leaf spot in cucumbers; assay type: cell-based, pseudomonas; conditions: read-out: inhibitory rate; for inhibition at 1 ppm: dosage 1 ppm; for inhibition at 5 ppm: dosage 5 ppm
[2] = test system: pathogenic bacteria causing bacterial wilt in tobacco; test: whole plant or invertebrate; assay type: cell-based, ralstonia; conditions: read-out: inhibitory rate
[3] = test system: pathogenic bacteria causing black shank in potatoes; test: In vitro bactericidal activity, black shank in potatoes; assay type: cell-based; conditions: read-out: inhibitory rate; for inhibition at 1 ppm: dosage 1 ppm; for inhibition at 5 ppm: dosage 5 ppm
[4] = test system: pathogenic bacteria causing stem rot in sweet potatoes; test: In vitro bactericidal activity, stem rot in sweet potatoes; assay type: cell-based, dikia; conditions: read-out: inhibitory rate; for inhibition at 1 ppm: dosage 1 ppm; for inhibition at 5 ppm: dosage 5 ppm
[5] = test system: pathogenic bacteria causing bacterial blight in rice; test: whole plant or invertebrate; assay type: cell-based, xanthomonas; conditions: read-out: inhibitory rate
[6] = test system: pathogenic bacteria causing fruit blotch in watermelons; test: In vitro bactericidal activity, fruit blotch in watermelons; assay type: cell-based, acidovorax; conditions: read-out: inhibitory rate; for inhibition at 1 ppm: dosage 1 ppm; for inhibition at 5 ppm: dosage 5 ppm
[7] = test system: pathogenic bacteria causing black rot in Chinese cabbages; test: In vitro bactericidal activity, black rot in Chinese cabbages; assay type: cell-based, xanthomonas; conditions: Xanthomonas, read-out: inhibitory rate; for inhibition at 1 ppm: dosage 1 ppm; for inhibition at 5 ppm: dosage 5 ppm
[8] = test system: pathogenic bacteria causing bacterial wilt in cassava; test: organism not typed; assay type: cell-based; conditions: read-out: inhibitory rate
[9] = test system: pathogenic bacteria causing fire blight in pears; test: In vitro bactericidal activity, fire blight in pears; assay type: cell-based, erwinia; conditions: Erwinia, read-out: inhibitory rate; for inhibition at 1 ppm: dosage 1 ppm; for inhibition at 5 ppm: dosage 5 ppm
black shank in potatoes = test: Living crops in vivo protective activity, potatoes (root irrigation); conditions: Solanum tuberosum, read-out: efficacy against black shank in potatoes; for pest or weed control at 5 ppm: dosage 5 ppm; for pest or weed control at 10 ppm: dosage 10 ppm
Protocol: Root irrigation was carried out on the potatoes for tests according to the designed concentration of the agents. The dosage for each plant was 200 mL and was kept consistent (also for the control). The black shank bacteria were inoculated on the second day after the application. The results were investigated according to the disease condition.

[10] = test system: indoor potted cucumber seedlings; test: Effect of improving growth and development of crops; assay type: in vivo; set-up: Rate of growth rate increase (%): concentration or dose not given beside the values; conditions: versus blank control; for Rate of chlorophyll content increase (%) / Rate of leaf area increase (%): 14 days after application; for Rate of growth rate increase (%): plant height 14 days after application; for Rate of leaf area increase (%): second leaf
Summary of the method: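 Plant height and second-leaf length/width were measured before application and 14 days after; growth rate and its percent increase, leaf area and leaf-area increase were calculated from these. Chlorophyll was read with a SPAD chlorophyll meter and its increase rate derived.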

cucumber seedlings = test: Safety for plant growth after application; assay type: in vivo; conditions: dosage 200 ppm
Summary of the method: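 Safety to the crop is assessed on cucumber seedlings in indoor pots by tracking how treatment alters leaf area, chlorophyll level and height growth rate.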

[11] = test system: bacterial wilt in tobacco; test: whole plant or invertebrate; conditions: Nicotiana tabacum, read-out: efficacy against bacterial wilt in tobacco
[12] = test system: stem rot in sweet potatoes; test: whole plant or invertebrate; conditions: read-out: efficacy against stem rot in sweet potatoes
bacterial blight in rice = test: whole plant or invertebrate; conditions: Oryza sativa, read-out: efficacy against bacterial blight in rice
[13] = test system: fruit blotch in watermelons; test: whole plant or invertebrate; conditions: read-out: efficacy against fruit blotch in watermelons
[14] = test system: soft rot in Chinese cabbages; test: whole plant or invertebrate; conditions: 48 h, read-out: efficacy against soft rot in Chinese cabbages

| SMILES | inhibition at 1 ppm [1] | inhibition at 5 ppm [1] | inhibition at 1 ppm [2] | inhibition at 5 ppm [2] | inhibition at 1 ppm [3] | inhibition at 5 ppm [3] | inhibition at 1 ppm [4] | inhibition at 5 ppm [4] | inhibition at 1 ppm [5] | inhibition at 5 ppm [5] | inhibition at 1 ppm [6] | inhibition at 5 ppm [6] | inhibition at 1 ppm [7] | inhibition at 5 ppm [7] | inhibition at 1 ppm [8] | inhibition at 5 ppm [8] | inhibition at 1 ppm [9] | inhibition at 5 ppm [9] | pest or weed control at 5 ppm (black shank in potatoes) | pest or weed control at 10 ppm (black shank in potatoes) | further results |
| --- | --- | --- | --- | --- | --- | --- | --- | --- | --- | --- | --- | --- | --- | --- | --- | --- | --- | --- | --- | --- | --- |
| COCCOC(=O)c1cn(C2CC2)c2cc(OC3CC3)c(F)cc2c1=O [Compound 294, 2-methoxyethyl 7-cyclopropoxy-1-cyclopropyl-6-fluoro-4-oxo-1,4-dihydroquinoline-3-carboxylate] | ≥ 90% | ≥ 90% | ≥ 90% | ≥ 90% | ≥ 90% | ≥ 90% | ≥ 90% | ≥ 90% | ≥ 90% | ≥ 90% | ≥ 90% | ≥ 90% | ≥ 90% | ≥ 90% | ≥ 90% | ≥ 90% | ≥ 90% | ≥ 90% | ≥ 90% | ≥ 90% | Rate of chlorophyll content increase (%) [10]: 10%; Rate of growth rate increase (%) [10]: 9%; Rate of leaf area increase (%) [10]: 12%; safety for plant growth (discoloration, necrosis, wilt, malformation) (cucumber seedlings): safe for plant growth; pest or weed control at 5 ppm [11]: ≥ 90%; pest or weed control at 10 ppm [11]: ≥ 90%; pest or weed control at 5 ppm [12]: ≥ 90%; pest or weed control at 10 ppm [12]: ≥ 90%; pest or weed control at 5 ppm (bacterial blight in rice): ≥ 90%; pest or weed control at 10 ppm (bacterial blight in rice): ≥ 90%; pest or weed control at 5 ppm [13]: ≥ 90%; pest or weed control at 10 ppm [13]: ≥ 90%; pest or weed control at 5 ppm [14]: ≥ 90%; pest or weed control at 10 ppm [14]: ≥ 90% |
| O=C(OCCCO)c1cn(C2CC2)c2cc(OCC(F)(F)F)c(F)cc2c1=O [Compound 329] | ≥ 90% | ≥ 90% | ≥ 90% | ≥ 90% | ≥ 90% | ≥ 90% | ≥ 90% | ≥ 90% | ≥ 90% | ≥ 90% | ≥ 90% | ≥ 90% | ≥ 90% | ≥ 90% | ≥ 90% | ≥ 90% | ≥ 90% | ≥ 90% | ≥ 90% | ≥ 90% | Rate of chlorophyll content increase (%) [10]: 17%; Rate of growth rate increase (%) [10]: 13%; Rate of leaf area increase (%) [10]: 17%; safety for plant growth (discoloration, necrosis, wilt, malformation) (cucumber seedlings): safe for plant growth; pest or weed control at 5 ppm [11]: ≥ 90%; pest or weed control at 10 ppm [11]: ≥ 90%; pest or weed control at 5 ppm [12]: ≥ 90%; pest or weed control at 10 ppm [12]: ≥ 90%; pest or weed control at 5 ppm (bacterial blight in rice): ≥ 90%; pest or weed control at 10 ppm (bacterial blight in rice): ≥ 90%; pest or weed control at 5 ppm [13]: ≥ 90%; pest or weed control at 10 ppm [13]: ≥ 90%; pest or weed control at 5 ppm [14]: ≥ 90%; pest or weed control at 10 ppm [14]: ≥ 90% |
